These are literature values, as cited in patent US6537758B2, “Method for isolating nucleic acid from micronuclei separated from a cell” (The Salk Institute for Biological Studies, priority 1995, dated 2003).

For data set [1], the system named is cells containing DMs.
The test system of data set [2] is HL60 cells. The following applies: low concentrations of HU.
The subject of data set [3] is mouse cells with unstably amplified dihydrofolate reductase (DHFR) genes.

On to `NC(=O)NO` [hydroxyurea], for which the “elimination of genes amplified on DMs” value in data set [1] (HU at concentrations that do not inhibit DNA synthesis or ribonucleotide reductase) is reported as “eliminated”. Further, the micronuclei formation entry in data set [1] (HU-treatment of cells containing DMs) is on record as “increase in micronuclei formation”. For the same compound, in data set [2], the c-myc expression entry is recorded as “decreased c-myc expression”, the differentiation result is recorded as “induction of differentiation” and the “number of c-myc-containing DMs” value is listed as “reduced the number of c-myc-containing DMs”. The “rate of loss of unstably amplified DHFR genes” value in data set [3] is on record as “increase the rate of loss”.
